# US8765750B2, “Piperazine compound having a PGDS inhibitory effect” (Taiho Pharmaceutical Co., Ltd., priority 2010, dated 2014)
# Key:
# human H-PGDS = human H-PGDS (Homo sapiens (Human), UniProt O60760); assay: Hematopoietic prostaglandin D synthase (H-PGDS) inhibiting action; assay type: biochemical; conditions: for inhibition at 0.1 µM / Inhibition Rate (%) 0.1 μM: compound at 0.1 μM, relative to the control group, human H-PGDS, [14C] prostaglandin H2 10 μM; for inhibition at 0.1 µM: read-out: Inhibition Rate (%) 0.1 μM; for IC50: inhibition concentration at 50% relative to H-PGDS, read-out: IC50
# Sequence of human H-PGDS (O60760 whole entry): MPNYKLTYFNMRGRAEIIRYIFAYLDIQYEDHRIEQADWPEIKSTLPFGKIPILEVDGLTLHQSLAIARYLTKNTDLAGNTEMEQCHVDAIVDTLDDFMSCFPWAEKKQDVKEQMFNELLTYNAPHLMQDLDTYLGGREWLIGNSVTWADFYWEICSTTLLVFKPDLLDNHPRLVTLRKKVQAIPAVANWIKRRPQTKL
# Protocol: The test was carried out according to the method of Urade, Y. et al. (J. Biol. Chem., 262, 3820-3825, (1987)). More specifically, the reaction mixture (49 μL) containing 100 mM Tris-HCl (pH 8.0), 1 mM reduced glutathione, 0.1 mg/mL γ-globulin, and human H-PGDS (q.s.), and a compound (final concentration: 0.01-100 μM) was preincubated at 25° C. for 5 minutes. A DMSO solution (final concentration: 1%) was added to the solvent control group. Subsequently, 1 μL of [^14C] prostaglandin H2 (final concentration: 10 μM) was added to start the reaction. One minute after the start of the reaction, 250 μL of a reaction stop solution (diethylether/methanol/1 M citric acid (30/4/1) at a temperature of −20° C. was added to stop the reaction. After the reaction was stopped, 50 μL of the upper-layer portion (organic solvent layer) was applied to a TLC plate and developed at −20° C. for 45 minutes (developing solvent: diethylether/methanol/acetic acid (90/2/1)). After drying the TLC plate, the TLC plate was exposed to an imaging plate for 1 to 24 hours, and the radioactivity corresponding to prostaglandin D2 (PGD2) was analyzed using an image analyzer (produced by Fujifilm Corporation). […]
# [1] = test system: PGD2 production in the nasal cavities of guinea pigs with antigen-induced rhinitis; assay: PGD2 production inhibiting action in the nasal cavities of guinea pigs with antigen-induced rhinitis; assay type: in vivo; conditions: 30 mg/kg orally 1 hour before induction of rhinitis reaction; washing 30 minutes after induction; * = significance level below 0.05 vs control group
# Protocol: A physiological saline solution containing 1 mg/mL of ovalbumin was subcutaneously injected into the back of 5-week-old male Std: Hartley guinea pigs in an amount of 1 mL/body for active sensitization (initial sensitization). One week and two weeks after initial sensitization, 20 μL of a physiological saline solution containing 10 mg/mL of ovalbumin was instilled into each nasal cavity using a micropipette (sensitization by nasal administration). Three weeks after initial sensitization, 20 μL of a physiological saline solution containing 10 mg/mL of ovalbumin was instilled into each nasal cavity using a micropipette to induce a rhinitis reaction.
# 30 minutes after the induction of a rhinitis reaction, the nasal cavities were washed under pentobarbital sodium anesthesia. A nasal cavity washing liquid (phosphate buffered saline containing 3 mM of EDTA and 10 μM of indomethacin) was flushed using a Peristaltic Pump (Gilson, Inc.) in the direction from the trachea to the upper respiratory tract at a flow rate of 1 mL/min, and the liquid flowing out from the nasal cavities was collected for 1 minute. The collected liquid was centrifuged to separate the supernatant as the nasal cavity washing fluid. The concentration of PGD2 in the nasal cavity washing fluid was determined using an EIA kit (Prostaglandin D2-MOX EIA kit, Cayman Chemical).
# The test compound (30 mg/kg) was orally administered 1 hour before induction of a rhinitis reaction. A formula to calculate the rate of decrease in PGD2 in the nasal cavity washing fluid is shown below. Rate (%) of decrease in PGD2 in the nasal cavity washing fluid={(PGD2 concentration in the control group−PGD2 concentration in the compound-administered group)÷(PGD2 concentration in the control group−PGD2 concentration in the normal group)}×100
# 8 or more cases were obtained from each group to determine whether expression of the PGD2 production inhibiting action occurred, and the PGD2 concentration in the nasal cavity washing fluid was compared between the control group and each compound-administered group. […] When the significance level was below 0.05, the action was considered to be present and indicated by a symbol (*) in the table. Reference Example 18, known as an H-PGDS inhibitor, was used as a positive control substance.
compound,measurement,setting,value
"Cn1cccc1C(=O)N1CCN(C(=O)NC2CCN(c3ccc(C(=O)N4CCCC4)cc3)CC2)CC1 [Compound 6, 4-((1-methylpyrrol-2-yl)-carbonyl)-N-(1-(4-(1-pyrrolidinylcarbonyl)phenyl)-piperidin-4-yl)-1-piperazinecarboxamide]",inhibition at 0.1 µM,human H-PGDS,63%
same,IC50,human H-PGDS,52 nM
"O=C(NCCN1CCOCC1)c1ccc(N2CCC(NC(=O)N3CCN(C(=O)c4cccs4)CC3)CC2)cc1 [Reference Example 4, 4-((thiophen-2-yl)-carbonyl)-N-(1-(4-(2-morpholinoethylcarbamoyl)-phenyl)-piperidin-4-yl)-1-piperazinecarboxamide, reference compound]",inhibition at 0.1 µM,human H-PGDS,29.2%
"Cn1cccc1C(=O)N1CCN(C(=O)NC2CCN(c3ccc(C(=O)N4CCCCC4)cc3)CC2)CC1 [Compound 5, 4-((1-methylpyrrol-2-yl)-carbonyl)-N-(1-(4-(1-piperidinylcarbonyl)phenyl)-piperidin-4-yl)-1-piperazinecarboxamide]",Rate (%) of decrease in PGD2 in the nasal cavity washing fluid,[1],88.0* %
same,inhibition at 0.1 µM,human H-PGDS,67.6%
same,IC50,human H-PGDS,41 nM
"Cn1cccc1C(=O)N1CCN(C(=O)NC2CCN(c3ccc(C(=O)NCc4cccnc4)cc3)CC2)CC1 [Compound 2, 4-((1-methylpyrrol-2-yl)-carbonyl)-N-(1-(4-(pyridin-3-ylmethylcarbamoyl)phenyl)-piperidin-4-yl)-1-piperazinecarboxamide]",inhibition at 0.1 µM,human H-PGDS,55.2%
"Cc1nc(C)n(CCCc2ccc(N3CCC(NC(=O)N4CCN(C(=O)c5cccn5C)CC4)CC3)cc2)n1 [Compound 9, 4-((1-methylpyrrol-2-yl)-carbonyl)-N-(1-(4-(3-(3,5-dimethyl-1,2,4-triazol-1-yl)-propyl)-phenyl)-piperidin-4-yl)-1-piperazinecarboxamide]",inhibition at 0.1 µM,human H-PGDS,54.2%
same,IC50,human H-PGDS,61 nM
"Cn1cccc1C(=O)N1CCN(C(=O)NC2CCN(c3ccc(C=CC(=O)N4CCOCC4)cc3)CC2)CC1 [Compound 11, 4-((1-methylpyrrol-2-yl)-carbonyl)-N-(1-(4-(3-morpholino-3-oxopropen-1-yl)-phenyl)-piperidin-4-yl)-1-piperazinecarboxamide]",inhibition at 0.1 µM,human H-PGDS,66.7%
CON(C)C(=O)c1[nH]c(C)c(-c2nc3ccc(C(=O)c4ccccc4)cc3[nH]2)c1C [Reference Example 18],Rate (%) of decrease in PGD2 in the nasal cavity washing fluid,[1],77.0* %
"O=C(Nc1nc2ccc(Br)cc2s1)N1CCN(C(=O)c2cccc(F)c2)CC1 [Reference Example 12, 4-(3-fluorobenzoyl)-piperazine-1-carboxylic acid-(6-bromobenzothiazol-2-yl)-amide, reference compound]",Rate (%) of decrease in PGD2 in the nasal cavity washing fluid,[1],7.9%
same,inhibition at 0.1 µM,human H-PGDS,45.1%
"Cc1ccc2nc(NC(=O)N3CCN(C(=O)c4cccc(F)c4)CC3)sc2c1 [Reference Example 14, 4-(3-fluorobenzoyl)-piperazine-1-carboxylic acid-(6-methylbenzothiazol-2-yl)-amide, reference compound]",Rate (%) of decrease in PGD2 in the nasal cavity washing fluid,[1],26.6%
same,inhibition at 0.1 µM,human H-PGDS,27.9%
"Cn1cccc1C(=O)N1CCN(C(=O)NC2CCN(c3ccc(CCC(=O)N4CCOCC4)cc3)CC2)CC1 [Compound 12, 4-((1-methylpyrrol-2-yl)-carbonyl)-N-(1-(4-(3-morpholino-3-oxopropyl)-phenyl)-piperidin-4-yl)-1-piperazinecarboxamide]",inhibition at 0.1 µM,human H-PGDS,53.6%
"Cn1cccc1C(=O)N1CCN(C(=O)NC2CCN(c3ccc(C(=O)N4CCOCC4)cc3)CC2)CC1 [Compound 4, 4-((1-methylpyrrol-2-yl)-carbonyl)-N-(1-(4-(4-morpholinylcarbonyl)phenyl)-piperidin-4-yl)-1-piperazinecarboxamide]",inhibition at 0.1 µM,human H-PGDS,69.8%
same,IC50,human H-PGDS,31 nM
4-(4-(4-((1-methylpyrrol-2-yl)-carbonyl)-1-piperazinecarbamoyl)piperidin-1-yl)-benzoic acid [Compound 1],Inhibition Rate (%) 0.1 μM,human H-PGDS,57.7%
same,IC50,human H-PGDS,67 nM
"Cn1cccc1C(=O)N1CCN(C(=O)NC2CCN(c3ccc(C(=O)NCCN4CCOCC4)cc3)CC2)CC1 [Compound 3, 4-((1-methylpyrrol-2-yl)-carbonyl)-N-(1-(4-(2-morpholinoethylcarbamoyl)-phenyl)-piperidin-4-yl)-1-piperazinecarboxamide]",inhibition at 0.1 µM,human H-PGDS,69.1%
same,IC50,human H-PGDS,27 nM
"O=C(NCCN1CCOCC1)c1ccc(N2CCC(NC(=O)N3CCN(C(=O)c4ccccc4)CC3)CC2)cc1 [Reference Example 11, 4-benzoyl-N-(1-(4-(2-morpholinoethylcarbamoyl)-phenyl)-piperidin-4-yl)-1-piperazinecarboxamide, reference compound]",inhibition at 0.1 µM,human H-PGDS,30%
"Cn1cccc1C(=O)N1CCN(C(=O)NC2CCN(c3ccc(CCCn4cncn4)cc3)CC2)CC1 [Compound 8, 4-((1-methylpyrrol-2-yl)-carbonyl)-N-(1-(4-(3-(1,2,4-triazol-1-yl)-propyl)-phenyl)-piperidin-4-yl)-1-piperazinecarboxamide]",inhibition at 0.1 µM,human H-PGDS,60.6%
"Cc1cc2nc(NC(=O)N3CCN(C(=O)c4cccc(F)c4)CC3)sc2cc1C [Reference Example 13, 4-(3-fluorobenzoyl)-piperazine-1-carboxylic acid-(5,6-dimethylbenzothiazol-2-yl)-amide, reference compound]",Rate (%) of decrease in PGD2 in the nasal cavity washing fluid,[1],3.9%
same,inhibition at 0.1 µM,human H-PGDS,31.6%
"Cn1cccc1C(=O)N1CCN(C(=O)NC2CCN(c3ccc(C(=O)N4CCOCC4)cn3)CC2)CC1 [Compound 14, 4-((1-methylpyrrol-2-yl)-carbonyl)-N-(1-(5-(4-morpholinylcarbonyl)pyridin-2-yl)-piperidin-4-yl)-1-piperazinecarboxamide]",inhibition at 0.1 µM,human H-PGDS,57.2%
"Cn1cccc1C(=O)N1CCN(C(=O)NC2CCN(c3ccc(CCn4ccnn4)cc3)CC2)CC1 [Compound 7, 4-((1-methylpyrrol-2-yl)-carbonyl)-N-(1-(4-(2-(1,2,3-triazol-1-yl)-ethyl)-phenyl)-piperidin-4-yl)-1-piperazinecarboxamide]",inhibition at 0.1 µM,human H-PGDS,75%
same,IC50,human H-PGDS,15 nM
"CCn1cccc1C(=O)N1CCN(C(=O)NC2CCN(c3ccc(C(=O)NCCN4CCOCC4)cc3)CC2)CC1 [Compound 15, 4-((1-ethylpyrrol-2-yl)-carbonyl)-N-(1-(4-(2-morpholinoethylcarbamoyl)phenyl)-piperidin-4-yl)-1-piperazinecarboxamide]",inhibition at 0.1 µM,human H-PGDS,69.9%
same,IC50,human H-PGDS,39 nM
"Cn1cccc1C(=O)N1CCN(C(=O)C2CCN(c3ccc(C(=O)O)cn3)CC2)CC1 [Compound 13, 6-(4-(4-((1-methylpyrrol-2-yl)-carbonyl)-1-piperazinecarbamoyl)-piperidin-1-yl)-nicotinic acid]",Inhibition Rate (%) 0.1 μM,human H-PGDS,52.8%
"Cn1cccc1C(=O)N1CCN(C(=O)NC2CCN(c3ccc(CCCn4ccnn4)cc3)CC2)CC1 [Compound 10, 4-((1-methylpyrrol-2-yl)-carbonyl)-N-(1-(4-(3-(1,2,3-triazol-1-yl)-propyl)-phenyl)-piperidin-4-yl)-1-piperazinecarboxamide]",inhibition at 0.1 µM,human H-PGDS,74.8%
same,IC50,human H-PGDS,27 nM
"CCn1cccc1C(=O)N1CCN(C(=O)NC2CCN(c3ccc(CCn4ccnn4)cc3)CC2)CC1 [Compound 16, 4-((1-ethylpyrrol-2-yl)-carbonyl)-N-(1-(4-(2-(1,2,3-triazol-1-yl)-ethyl)-phenyl)-piperidin-4-yl)-1-piperazinecarboxamide]",inhibition at 0.1 µM,human H-PGDS,68.4%
